Here are results for 98 compounds from ChEMBL document CHEMBL3507680, “University of Dundee, Gates Library screen for HepG2 cell viability”.

The series is described as follows: Human HepG2 cell viability assay in 384 well format. The format is toxicity, cell-based. The arrangement: dose 125 nL, time 70.5 hour; concentration not given beside the values. Conditions: HepG2 cells, read-out: Inhibition.
For the compound `Cc1cn2c(n1)CCC(NC(=O)CCn1ccnn1)C2` (stereo not drawn), the cytotoxicity at 70.5 h is -8.67%.

As to `Cc1nc(C)n(CC2CCCN2c2ncnc3ccsc23)n1` (stereo not drawn), the cytotoxicity at 70.5 h was -5.53%.

For `N#Cc1cccc(CN2CCn3cc(Cn4cccn4)nc3C2)c1`, the cytotoxicity at 70.5 h is -16%.

For the compound `COC(=O)c1ccoc1CN(C)Cc1cc(OC)c(OC)cc1C`, the cytotoxicity at 70.5 h was -12.1%.

Regarding `Cc1sc2nc(CCN)nc(N3CCC(N4CCCC4)CC3)c2c1C`, the cytotoxicity at 70.5 h is -4.21%.

Take `Cn1cc(CN2CCOC(Cc3cccc(F)c3)C2)cn1` (stereo not drawn): the cytotoxicity at 70.5 h is -6%.

For `Cc1cc(NCCNc2ncccc2C)n2nc(C)cc2n1`, the cytotoxicity at 70.5 h was -15.2%.

For the compound `Cc1nnc(NC(=O)NCc2ccc(OC3CCCC3)nc2)s1`, the cytotoxicity at 70.5 h stood at 1.95%.

As for `CSc1ccccc1CN1C[C@H]2C(=O)N(CC3CC3)C[C@@]2(C(=O)O)C1`, the cytotoxicity at 70.5 h is -0.998%.

Turning to `COc1c(C2CCCN2CC(=O)NCc2ccccn2)c(C)nn1C` (stereo not drawn), the cytotoxicity at 70.5 h is -11.4%.

With `Cc1nc(C)n(CC2CCCCN2Cc2cnc(C)s2)n1` (stereo not drawn), the cytotoxicity at 70.5 h is -7.75%.

For the compound `CNC(=O)C1(c2cnccn2)CCCN1C(=O)c1ccccc1F` (stereo not drawn), the cytotoxicity at 70.5 h was -3.62%.

Turning to `CCC1=N[C@@]2(CC[C@@H]3CN(C(=O)Nc4ccccc4)C[C@@H]32)C(=O)N1CC`, the cytotoxicity at 70.5 h was -85.5%.

On to `CO[C@@H]1CCN(c2nnc(C)s2)C[C@@H]1Cc1cccc(C)c1`, for which the cytotoxicity at 70.5 h is -0.0343%.

As for `CN(C)c1cnn(CC(=O)N2CCN(Cc3cccs3)CC2)c(=O)c1`, the cytotoxicity at 70.5 h is -8.39%.

`Cc1nc2c(c(N3CCC(CCn4cccn4)CC3)n1)CCNCC2`: the cytotoxicity at 70.5 h was -2.46%.

Regarding `Cc1cc(C(=O)NCCN2CCCCC2C)nn1C(C)(C)C` (stereo not drawn), the cytotoxicity at 70.5 h was -10.9%.

Take `CC(=O)N1CCCn2nc(CNS(=O)(=O)N(C)C(C)C)cc2C1`: the cytotoxicity at 70.5 h is -14.6%.

As to `Cn1ncc2c1CCCC2NCc1ccc(OCc2cccnc2)cc1` (stereo not drawn), the cytotoxicity at 70.5 h is -14.4%.

In the case of `CCN(CC)Cc1cn2c(n1)CN(Cc1c(C)noc1C)CC2`, the cytotoxicity at 70.5 h amounted to 0.0103%.

As to `CNc1cncc(C2CCN(C(=O)c3cnco3)CC2)n1`, the cytotoxicity at 70.5 h was determined as 9.47%.

With `COc1cccc(NC(=O)N2CCC(O)(C(F)(F)F)C2)c1` (stereo not drawn), the cytotoxicity at 70.5 h was -2.52%.

For `Cc1cc(C)n(CC2CCCN2C(=O)c2ccc3c(c2)OCCO3)n1` (stereo not drawn), the cytotoxicity at 70.5 h was -12.8%.

`CCCN(Cc1ccc(C(=O)NCC2COCCO2)c(=O)[nH]1)C1CC1` (stereo not drawn): the cytotoxicity at 70.5 h worked out at 50.6%.

In the case of `CCOC(=O)c1sc2ccsc2c1CNC(=O)CCOC`, the cytotoxicity at 70.5 h is 16.3%.

Take `O=C(NCc1nncn1C1CC1)C1(c2ccc(F)cc2)CCOCC1`: the cytotoxicity at 70.5 h stood at 16.9%.

Regarding `CCc1cc(N[C@H]2CCC[C@H]2CO)n2nc(C)c(C)c2n1`, the cytotoxicity at 70.5 h is -2.92%.

Take `CC(C)c1nnc2n1CCN(C(=O)c1ccc(OCC(N)=O)cc1)C2`: the cytotoxicity at 70.5 h was -4.33%.

Consider `CC(=O)N1CCC(C)(c2cc(C(=O)NCC(C)(C)C)nc(C)n2)CC1`, for which the cytotoxicity at 70.5 h worked out at 9.62%.

As to `O=C(O)[C@@H]1CN(C(=O)c2ccc3[nH]nnc3c2)C[C@H]1c1cccc(F)c1`, the cytotoxicity at 70.5 h was -8.9%.

Take `CSCC(=O)N1CCCN(c2ccncc2C)CC1`: the cytotoxicity at 70.5 h was -8.19%.

Turning to `COc1c(C2CCCN2C(=O)c2sc(C)nc2C)c(C)nn1C` (stereo not drawn), the cytotoxicity at 70.5 h is 10.6%.

`C=C(C)CNCC1(O)CCCN(Cc2ccc(F)c(F)c2)C1=O` (stereo not drawn): the cytotoxicity at 70.5 h was -1.61%.

Consider `CCN(CC)c1ccc2ccc(C(=O)N3CCCCO3)cn12`, for which the cytotoxicity at 70.5 h was found to be 3.7%.

Take `CC(C1CC1)n1nccc1NC(=O)CN(C)C(=O)OC(C)(C)C` (stereo not drawn): the cytotoxicity at 70.5 h was found to be 27.9%.

In the case of `CCC(=O)N1CCC2(CC1)CN(CCO)Cc1ccccc12`, the cytotoxicity at 70.5 h worked out at 1.97%.

For `CC(=O)NCC(=O)Nc1cc(C)n(-c2ccc(Cl)cc2Cl)n1`, the cytotoxicity at 70.5 h was -0.82%.

Turning to `O=S(=O)(NCCc1nnc2ccccn12)c1cccnc1`, the cytotoxicity at 70.5 h was found to be 14.7%.

For the compound `Cc1nc(N2CCN(C(=O)c3ccc(O)cc3)CC2)c2cnn(C)c2n1`, the cytotoxicity at 70.5 h was -18.5%.

In the case of `Cc1cccc(CN2CCO[C@H]3[C@@H](OCc4ccncc4)CC[C@@H]32)n1`, the cytotoxicity at 70.5 h was -7.09%.

Consider `CC(=O)N1CCC(C(=O)N2CCC2c2nc(-c3ccc(C)s3)no2)CC1` (stereo not drawn), for which the cytotoxicity at 70.5 h was determined as 9.04%.

Consider `Cc1nc(NC2CCCC2)cc(C2CCN2C(=O)c2ccccn2)n1` (stereo not drawn), for which the cytotoxicity at 70.5 h was -4.92%.

Turning to `CC(=O)c1c(O)ccnc1C(F)(F)F`, the cytotoxicity at 70.5 h was -3.79%.

Consider `CS(=O)(=O)c1ccc(CNC(=O)N2CCC(CO)CC2)cc1`, for which the cytotoxicity at 70.5 h was -2.86%.

Regarding `O=C(NCC1CCCO1)C1CCN(Cc2nc(C3CC3)no2)CC1` (stereo not drawn), the cytotoxicity at 70.5 h stood at 3.81%.

In the case of `Cc1ccc2nc3n(c2c1)[C@@H](CNCc1nccs1)COC3`, the cytotoxicity at 70.5 h was -5.06%.

For the compound `CCCN(CCC)C(=O)Cn1c(SC)nc2ccsc2c1=O`, the cytotoxicity at 70.5 h is -0.333%.

`Cc1nc(CN2CCCN(C(=O)c3ccn(C)c(=O)c3)CC2)cs1`: the cytotoxicity at 70.5 h worked out at 30.7%.

On to `COCCOc1ccnc(-c2noc([C@@H]3CCCN3C)n2)c1`, for which the cytotoxicity at 70.5 h is -3.64%.

Turning to `O=C(C1CCC1)N1CCN(C(=O)c2cnccn2)[C@H]2CS(=O)(=O)C[C@H]21`, the cytotoxicity at 70.5 h was -11.7%.

As to `Cc1nc(COC[C@H]2CC[C@H]3[C@H](CCN3c3ncccn3)O2)cs1`, the cytotoxicity at 70.5 h was -6.71%.

As for `NS(=O)(=O)c1cccc(CNc2nccc(C(F)(F)F)n2)c1`, the cytotoxicity at 70.5 h was -5.9%.

Turning to `O=C(OC1CCC1)c1ncccc1OCC(F)(F)F`, the cytotoxicity at 70.5 h is 15.8%.

`C[C@H]1C[C@H]2CN(C(=O)C3=CCCCC3)CC[C@H]2O1`: the cytotoxicity at 70.5 h was -2.58%.

For `Cc1ccc2c(c1)C(N(C)C)CC21CCN(CCO)CC1` (stereo not drawn), the cytotoxicity at 70.5 h was -0.704%.

Take `COc1ccc2c3c1CN(C(=O)N(C)C)CC3=CC(C)(C)CO2`: the cytotoxicity at 70.5 h is -6.85%.

Turning to `Cc1cnn(CC(C)NCc2ccncc2)c1` (stereo not drawn), the cytotoxicity at 70.5 h was determined as 0.737%.

With `CC(CNC(=O)N1CCN(c2cnccn2)CC1)Cc1cccs1` (stereo not drawn), the cytotoxicity at 70.5 h was -4.18%.

In the case of `CS(=O)(=O)NC1CCN(CCOCc2ccccc2)CC1`, the cytotoxicity at 70.5 h was -6.45%.

In the case of `CC(C)c1nc(C2CCCN2CCS(=O)(=O)c2ccccc2)no1` (stereo not drawn), the cytotoxicity at 70.5 h turned out to be 2.5%.

On to `N#Cc1ccsc1NC(=O)CN1CCOC(Cn2cccn2)C1` (stereo not drawn), for which the cytotoxicity at 70.5 h was determined as 11%.

Turning to `CCOC(=O)N1CCCn2nc(C(=O)NCCN(C)C)cc2C1`, the cytotoxicity at 70.5 h is -6.9%.

On to `Cc1ccc(C2C3=C(COC3=O)Nc3[nH]nc(C)c32)cc1C` (stereo not drawn), for which the cytotoxicity at 70.5 h was -3.38%.

In the case of `CN1CCN(c2nc(O)c3c(-c4ccccn4)ccnc3n2)CC1`, the cytotoxicity at 70.5 h is -3.01%.

In the case of `CC(C)Nc1cc(N2CCC(n3cc(C4CCCC4)nn3)CC2)ncn1`, the cytotoxicity at 70.5 h was -8.81%.

On to `O=S(=O)(c1c(Cl)nc2sccn12)N1CCC2(CCNCC2)C1`, for which the cytotoxicity at 70.5 h was -6.41%.

In the case of `O=C(CC1CCCCC1)NC1CCCc2nc(N3CCOCC3)ncc21` (stereo not drawn), the cytotoxicity at 70.5 h came out at 0.0844%.

As to `O=C(C1CC=CC1)N1CC[C@H]2[C@@H]1CCC(=O)N2c1ccccc1`, the cytotoxicity at 70.5 h was -3.86%.

As for `CN(C)c1ncc(CNC2CC(=O)N(CCc3cccc(Cl)c3)C2)s1` (stereo not drawn), the cytotoxicity at 70.5 h was -4.44%.

`COc1ccc(C(=O)NC2CC2)c(OC2CCN(C(C)CO)CC2)c1` (stereo not drawn): the cytotoxicity at 70.5 h was determined as 0.736%.

Regarding `COc1ccc(C2(C(=O)N3C[C@@H](C(=O)O)[C@H](C(C)C)C3)CC2)cc1`, the cytotoxicity at 70.5 h is -6.04%.

With `Cn1nc2c(cc1=O)CN(CC(=O)Nc1nncs1)CC2`, the cytotoxicity at 70.5 h is -1.1%.

In the case of `Cc1ccc(OCC(=O)N(C)Cc2cccc(F)c2)cn1`, the cytotoxicity at 70.5 h was -3.84%.

With `c1csc(COC[C@H]2CCC[C@]23CN(Cc2ccoc2)CCO3)n1`, the cytotoxicity at 70.5 h was -9.63%.

Consider `CCC[C@@H]1CN(C(=O)c2c(F)ccc(C)c2Cl)C[C@H]1C(=O)O`, for which the cytotoxicity at 70.5 h is 0.166%.

Regarding `CNc1ccc(CC2CCCN(C(=O)c3scnc3C)C2)nn1` (stereo not drawn), the cytotoxicity at 70.5 h was -5.63%.

For `CN(Cc1ccncn1)C(=O)CCC(=O)NC1CCCC1`, the cytotoxicity at 70.5 h was -9.64%.

As to `CNC(=O)c1ccnc(N2CCCC(COc3cccc(C)c3)C2)c1` (stereo not drawn), the cytotoxicity at 70.5 h is -20.4%.

For `CO[C@@H]1CN(S(=O)(=O)c2cn(C)cn2)[C@@H]2CCCO[C@@H]21`, the cytotoxicity at 70.5 h is -4.74%.

In the case of `Cc1cccc(CN2CCOC3(COCCN(CCN(C)C)C3)C2)n1` (stereo not drawn), the cytotoxicity at 70.5 h was -3.04%.

Take `CCN(Cc1nc(COC)no1)C[C@]1(O)CCCN2CCCC[C@@H]21`: the cytotoxicity at 70.5 h is -10.1%.

Consider `O=C(c1cnccn1)N1CCN2C[C@H](OCc3ccccc3F)C[C@H]2C1`, for which the cytotoxicity at 70.5 h is -6.71%.

Turning to `Cn1c(SCC2OCCc3ccccc32)n[nH]c1=O` (stereo not drawn), the cytotoxicity at 70.5 h was -8.09%.

Turning to `CC(=O)N1Cc2ccccc2CC2(CCCCN2C)C1` (stereo not drawn), the cytotoxicity at 70.5 h was 21.1%.

For `CC1CCCN(C(=O)c2ncncc2Cl)C1` (stereo not drawn), the cytotoxicity at 70.5 h was 12.9%.

`Cc1cc(C)n(C2CCCN(C(=O)CCOc3cccc(F)c3)C2)n1` (stereo not drawn): the cytotoxicity at 70.5 h was -2.12%.

Consider `COC1CCN(c2ccc(F)cc2CN(C)S(C)(=O)=O)CC1`, for which the cytotoxicity at 70.5 h is -8.29%.

For `CC(C)(C)CC(=O)Nc1cnn(-c2ccccc2S(C)(=O)=O)c1`, the cytotoxicity at 70.5 h was -5.49%.

Take `Cc1cc2c(=O)n3c(nc2s1)CCN(C(=O)c1ccnn1C)CC3`: the cytotoxicity at 70.5 h was -8.17%.

Take `COc1cccc(COCC(=O)N2CCCC(n3cncn3)C2)c1` (stereo not drawn): the cytotoxicity at 70.5 h is -1.04%.

`Cn1ccc(C2CCCCN2C(=O)c2cccc(Cn3cccn3)c2)n1` (stereo not drawn): the cytotoxicity at 70.5 h was found to be 8.89%.

As for `CCc1noc(CN2CCN(C(=O)N(C)C)CC2)n1`, the cytotoxicity at 70.5 h was 20.5%.

On to `CN1CCCC1CNC(=O)CCCOc1cccc(Br)c1` (stereo not drawn), for which the cytotoxicity at 70.5 h is 17.7%.

As to `Cn1cc(N2CCCC(SCc3nc(C4CC4)no3)C2=O)cn1` (stereo not drawn), the cytotoxicity at 70.5 h amounted to 29.8%.

As to `Cc1cc(C2CCCN(Cc3ncc(C)o3)C2)n[nH]1` (stereo not drawn), the cytotoxicity at 70.5 h was -10.2%.

For the compound `Cc1cc(C(=O)Nc2n[nH]c(C3CC3)n2)c2c(C)noc2n1`, the cytotoxicity at 70.5 h turned out to be 29%.

In the case of `COc1cc(-c2cc(NC3CCCC3)nc3[nH]ccc23)nc(N)n1`, the cytotoxicity at 70.5 h is -11.3%.

For the compound `CN1CCC(N(C)C(=O)Nc2ccc(Cl)cc2)CC1`, the cytotoxicity at 70.5 h was -2.16%.
